Test results taken from US20230322854A1, “HUNTINGTIN-RELATED PEPTIDE AGENTS AND USES THEREOF” (UNIVERSITY OF SOUTHERN CALIFORNIA, priority 2020, published 2023).
“Also recorded” adds a separate entry of the source. One block for each molecule: values may come before it. No end group written: not given here. spin label = not defined here

Key:
[1] = tested on: unbundled Huntingtin fibrils (exon 1); test: Radioactive binding assay, immobilized unbundled Huntingtin fibrils; settings: for effect on HD1 binding of constant region / N-terminal mutation: HD 1A versus HD1 with GSGTSGSS, HD1 MA versus HD1 MM; for effect on binding of mutating the HD8 residue to Alanine: Alanine scan of HD8; for effect on HD8 binding affinity of constant region / N-terminal mutation: versus HD8 with GSGTSGSS, HD8 MA versus HD8 MM; for effect on binding of mutating the HD1 residue to Alanine: Alanine scan of HD1; for binding to Htt-fibrils: radiolabeled mRNA-peptide fusions, fibrils immobilized on beads
Excerpt: Messenger RNA (mRNA) display (described in (Roberts, et al. (1997) Proc Natl Acad Sci USA 94: 12297-302, Takahashi, et al. (2003) Trends Biochem Sci 28: 159-65); FIG. 2) was used to engineer peptide agents that bind to unbundled fibrils of Huntingtin exon 1. To do this, unbundled Huntingtin fibrils were generated by mixing biotinylated Huntingtin protein (exon 1; FIG. 1) with non-biotinylated exon 1 Huntingtin protein at a ratio of 1:20 (˜5% biotinylated Huntingtin). These fibrils were then immobilized on Neutravidin agarose (Thermo Fisher) or Streptavidin ultralink beads (Thermo Fisher) via the attached biotin. A MX9 (where X is any of the 20 natural amino acids) mRNA display library was generated using published procedures (Takahashi, et al. (2009) Methods Mol Biol 535: 293-314) and incubated with immobilized fibrils. Non-binding sequences were washed away and the remaining fibril binding peptides were amplified via RT-PCR. This process was repeated seven times.
(§1) The binding of the peptide library was determined using a radioactive binding assay. In this assay, peptides were radiolabeled by translating the mRNA coding for these peptides in the presence of ^35S-methionine using rabbit reticulocyte lysate (Jackson, et al. (1983) Methods Enzymol 96: 50-74). These peptides were translated in an mRNA display format and were thus linked to their encoding mRNA, as described above. After purification by dT chromatography, the radiolabeled peptides were incubated with Huntingtin fibrils immobilized on Neutravidin Agarose or Streptavidin Ultralink beads. The beads were then filtered through a Spin X column (Corning) to separate the supernatant and beads, then washed to remove unbound sequences. The supernatant, washes, and beads were all counted in a scintillation counter to determine the counts in each sample. The percent bound was determined by dividing the counts on the beads with the total counts (beads+washes+supernatant).

[2] = tested on: Httex1 aggregates; test: Labeling of Httex1 aggregates in retinal sections of Huntington mouse models; settings: R6/1 (34 weeks) and zQ175KI (48 weeks) mice, 2 micromolar
Excerpt: FIG. 28 presents fluorescence microscopy pictures showing that HD8-Alexa488 labels aggregated Httex1 in retina sections from two different mouse model of Huntington disease. Left panels show nuclear stain that labels all cells. Right panels show signal from HD8-Alexa488. Top panels show a retinal section from a R6/1 mouse, and bottom panels show a retinal section from a zQ175KI mouse.
Left panels show nuclear stain that labels all cells (A1 and B1), and right panels show signal from HD8-SP10-HD1-fluorescein (A2 and B2). Top panels are higher magnification that show the ganglion cell layer of the retina, and the bottom panels are lower magnification micrographs that show all retinal layers. Labeling of all retinal layers is seen when the HD peptides are dimerized. The phase contrast panel to the left of the bottom panels show the corresponding retinal layers: ONL: outer nuclear layer that contain rod and cone photoreceptor cells, INL: inner nuclear layer that contains cell bodies from horizontal cells, bipolar cells, amacrine cells and Müller cells, GCL: ganglion cell layer.
To see whether HD peptides bind Httex1 aggregates formed in vivo, we used tissues from two different Huntington mouse models, R6/1 (34 weeks old) and zQ175KI (48 weeks). FIG. 28 show retinal sections from these mice incubated with 2 micromolar of HD8 conjugated with Alexa488 at its carboxyl terminus.
HD8-HD1-fluorescein (0.1 micromolar) was also used on retinal sections from 34-week-old R6/1 mice (FIG. 29). […] In addition, weaker signal from intranuclear aggregates was also observed. Further, the signal can now be detected in all layers of the retina where the nuclei reside.

[3] = Radioactive binding assay, beads without target (no target control); settings: radiolabeled peptide
Description: as §1

[4] = target: unbundled fibrils of Huntingtin exon 1 (about 5% biotinylated), immobilized on beads (UniProt P42858); test: alanine scan of the constant region, radioactive binding assay
[5] = target: unbundled fibrils of Huntingtin exon 1 (about 5% biotinylated), immobilized on beads (UniProt P42858); test: EPR, spin-labeled peptide titrated onto 15 µM fibrils

Molecule: HD1 MA: HD1 with additional Met at the N-terminus, Met1 changed to Ala (MADWWPMWPSLGSGTSGSS)
- effect on HD1 binding of constant region / N-terminal mutation [1]: significantly decreases binding

Molecule: HD1-SP10-HD8-SP10-HD1: trimeric peptide agent of HD1, HD8, HD1 with spacers (MDWWPMWPSLGSGTSGSSGSMWQMMNGMSQGSGTSGSSGSMDWWPMWPSL)
- binding under lower fibril conditions ([1]; 0.7 μg protein (about 50 pmol as monomer)): better performing

Molecule: HD8-Alexa488: HD8 conjugated with Alexa488 at its carboxyl terminus (MWQMMNGMSQ-Alexa488)
- labeling of retinal sections [2]: Specific staining was observed in the ganglion cell layer of the retina in both mouse models
- labeling of retinal sections ([2]; listed as HD8 conjugated with Alexa488): observed mostly in the ganglion cell layer

Molecule: HD8SP10-HD1: dimeric peptide agent of HD8 and HD1 joined by a 10 amino acid spacer (MWQMMNGMSQGSGTSGSSGSMDWWPMWPSLGSGTSGSS)
- binding in the presence of urea ([1]; 1 M, 2 M or 3 M urea versus buffer only (TBST)): decreased binding that is approximately proportional to the amount of urea added

Molecule: HD 1A: HD1 with substitution of the GSGTSGSS constant region with Ala (MDWWPMWPSLA)
- effect on HD1 binding of constant region / N-terminal mutation [1]: little effect on binding affinity

Molecule: MAWQMMNGMSQ GSGTSGSS (MAWQMMNGMSQGSGTSGSS) [HD8 MA]
- effect on HD8 binding affinity of constant region / N-terminal mutation [1]: decrease in binding

Molecule: MDWWAMWPSL [P5]
- effect on binding of mutating the HD1 residue to Alanine [1]: decrease binding

Molecule: MDWWPAWPSL [M6]
- effect on binding of mutating the HD1 residue to Alanine [1]: decrease binding; also recorded: reduced but did not abolish

Molecule: MDWWPLWPSL (MDWWPLWPSLGSGTSGSS) [HD1 M6L]
- effect on binding of Met substitution in HD1 ([1]; HD1 Met mutants versus HD1): no effect on binding

Molecule: MDWWPMWASL [P8]
- effect on binding of mutating the HD1 residue to Alanine [1]: decrease binding

Molecule: MDWWPMWPSA [L10]
- effect on binding of mutating the HD1 residue to Alanine [1]: decrease binding

Molecule: MFFVLSWTPL [HD5]
- binding to beads without target [3]: high non-specific binding to beads without target

Molecule: MQMWTMWEPW (MQMWTMWEPWGSGTSGSS) [HD 6]
- binding to beads without target [3]: little to no binding to beads without target
- binding to Htt-fibrils [1]: good binding to Htt-fibrils

Molecule: MWQMANGMSQ [M5]
- effect on binding of mutating the HD8 residue to Alanine [1]: modest losses

Molecule: MWQMMNAMSQ [G7]
- effect on binding of mutating the HD8 residue to Alanine [1]: modest losses

Molecule: MWQMMNGASQ [M8]
- effect on binding of mutating the HD8 residue to Alanine [1]: modest losses

Molecule: MWQMMNGMSQA [HD 8A]
- effect on HD8 binding affinity of constant region / N-terminal mutation [1]: modest loss in binding affinity

Molecule: MWQMMNGMSQG [HD 8G]
- effect on HD8 binding affinity of constant region / N-terminal mutation [1]: loss could be recovered

Molecule: MWQMMNGMSQGS [HD 8GS]
- effect on HD8 binding affinity of constant region / N-terminal mutation [1]: loss could be recovered

B1: HD1 G11A (peptide)
peptide: MDWWPMWPSLASGTSGSS
modifications: also: 35S-methionine
- percent decrease in HD1 binding [4]: 20%

B2: spin-labeled synthetic HD8 (peptide)
peptide: MWQMMNGMSQC(spin label)
modifications: reading uncertain
- stoichiometry of the complex (ratio) (ratio (printed 1:1)) [5]: 1

B3: spin-labeled synthetic HD1 (peptide)
peptide: MDWWPMWPSLC(spin label)
modifications: reading uncertain
- stoichiometry of the complex (ratio at saturation) (ratio (printed 1:3)) [5]: 0.33

B4: HD1 G13A (peptide)
peptide: MDWWPMWPSLGSATSGSS
modifications: also: 35S-methionine
- percent decrease in HD1 binding [4]: 20%

B5: HD8-SP10-HD1-SP10-HD8-SP10-HD1: tetrameric HD8/HD1 molecule with spacers (peptide)
peptide: MWQMMNGMSQGSGTSGSSGSMDWWPMWPSLGSGTSGSSGSMWQMMNGMSQGSGTSGSSGSMDWWPMWPSL
- binding to Htt-fibrils in the presence of serum ([1]; serum diluted 1:2, 1:5 or 1:10 with buffer (TBST)): serum can partially inhibit binding

B6: HD1 S12A (peptide)
peptide: MDWWPMWPSLGAGTSGSS
modifications: also: 35S-methionine
- percent decrease in HD1 binding [4]: 20%

Now from value to molecule, other results behind:

- effect on binding of mutating the HD8 residue to Alanine [1]: modest losses
Molecule: MAQMMNGMSQ [W2]

- effect on binding of mutating the HD1 residue to Alanine [1]: decrease binding
Molecule: MDAWPMWPSL [W3]

- binding to Htt-fibrils [1]: good binding to Htt-fibrils
Molecule: MDLWPMWESW (MDLWPMWESWGSGTSGSS) [HD7]
- binding to beads without target [3]: little to no binding to beads without target

- binding to Htt-fibrils [1]: demonstrated binding to Htt-fibrils
Molecule: MFMMMWMSLT (MFMMMWMSLTGSGTSGSS) [HD4]
- binding to beads without target [3]: little to no binding to beads without target

- binding to Htt-fibrils [1]: demonstrated binding to Htt-fibrils
Molecule: MRWSMSYSWA (MRWSMSYSWAGSGTSGSS) [HD3]
- binding to beads without target [3]: little to no binding to beads without target

- effect on binding of mutating the HD8 residue to Alanine [1]: large losses of binding
Molecule: MWAMMNGMSQ [Q3]

- binding to Htt-fibrils [1]: demonstrated binding to Htt-fibrils
Molecule: MWMIQMPGYQ (MWMIQMPGYQGSGTSGSS) [HD2]
- binding to beads without target [3]: little to no binding to beads without target
